Data reported in ChEMBL document CHEMBL5214890 (Eur J Med Chem, 2021).
Calls of active or inactive are those of the source. The calls are words filed in the database; no cut-off is given here.

Assays:
[1] = target: Glucagon receptor (Homo sapiens, UniProt P47871); test: Agonist activity at human GCGR expressed in HEK293 cells incubated for 30 mins and assessed as increase in cAMP accumulation measured by HTRF assay; assay type: functional, cell-based
[2] = system: Mus musculus; test: Antidiabetic activity in db/db mouse assessed as reduction in blood glucose at 10 nmol/kg, ip pretreated with compound and followed by glucose challenge and measured by oral glucose tolerance test; assay type: functional, organism-based
[3] = system: Mus musculus; test: Antidiabetic activity in overnight fasted male C57BL/6J mouse at 10 nmol/kg, ip administered at -30 mins and measured by oral glucose tolerance test; assay type: functional, organism-based
[4] = system: Mus musculus; test: Antidiabetic activity in 2 hrs fasted male C57BL/6J mouse at 10 to 30 nmol/kg, ip administered at 0 mins in presence of somatostatin at 10 mg/kg, sc administered at -30 mins and measured by oral glucose tolerance test; assay type: functional, organism-based; settings: dose 10-30 nmol/kg
[5] = system: Mus musculus; test: Antidiabetic activity in male DIO mouse assessed as reduction in acute food intake at 10 nmol/kg, sc measured at 0 to 2 hrs post administration; assay type: functional, organism-based
[6] = system: Mus musculus; test: Antidiabetic activity in overnight fasted male C57BL/6J mouse assessed as reduction in acute food intake at 30 nmol/kg, sc administered at -0.5 hrs; assay type: functional, organism-based
[7] = system: Rattus norvegicus; test: Antidiabetic activity in overnight fasted male Sprague-Dawley rat assessed as reduction in food intake at 300 nmol/kg, ip; assay type: functional; design: scale not given: the % may be the effect or the level left
[8] = Cmax in male Sprague-Dawley rat at 25 nmol/kg, iv administered as single dose and measured after 24 hrs by LC-MS/MS analysis; assay type: ADME, organism-based; design: dose 25 nmol/kg, time 24 hrs, route iv; settings: in vivo
[9] = MRT in male Sprague-Dawley rat at 25 nmol/kg, sc administered as single dose and measured after 24 hrs by LC-MS/MS analysis; assay type: ADME, organism-based; settings: in vivo
[10] = AUC (inifinity) in male Sprague-Dawley rat at 25 nmol/kg, sc administered as single dose and measured after 24 hrs by LC-MS/MS analysis; assay type: ADME, organism-based; design: dose 25 nmol/kg, time 24 hrs, route sc; settings: in vivo
[11] = system: Mus musculus; test: Antidiabetic activity in male DIO mouse assessed as decrease in cumulative food intake at 100 nmol/kg, sc administered twice daily for 7 days; assay type: functional, organism-based; settings: time 7.0 day
[12] = Toxicity in male db/db mouse assessed as change in liver AST level at 100 nmol/kg, sc administered twice daily for 7 days; assay type: organism-based; settings: in vivo, 168 h, time 7 day
[13] = Toxicity in male db/db mouse assessed as change in serum amylase at 100 nmol/kg, sc administered twice daily for 7 days; assay type: organism-based; settings: in vivo, 168 h, time 7 day
[14] = system: Mus musculus; test: Antidiabetic activity in male db/db mouse assessed as reduction in blood glucose level at 30 nmol/kg, sc administered twice daily for 35 days; assay type: functional, organism-based; settings: time 35.0 day
[15] = system: Mus musculus; test: Antidiabetic activity in male db/db mouse assessed as reduction in food consumption at 30 nmol/kg, sc administered twice daily for 35 days; assay type: functional, organism-based; settings: time 35.0 day
[16] = system: Mus musculus; test: Antidiabetic activity in male db/db mouse assessed as improvement in glucose tolerance at 30 nmol/kg, sc administered twice daily for 35 days; assay type: functional, organism-based; settings: time 35.0 day
[17] = system: Mus musculus; test: Antidiabetic activity in male db/db mouse assessed as increase in insulin IOD value at 30 nmol/kg, sc administered twice daily for 35 days; assay type: functional, organism-based; settings: time 35.0 day
[18] = Toxicity in male db/db mouse assessed as change in liver AST level at 30 nmol/kg, sc administered twice daily for 35 days; assay type: organism-based; settings: in vivo, 840 h, time 35 day
[19] = Toxicity in male db/db mouse assessed as change in BUN level at 30 nmol/kg, sc administered twice daily for 35 days; assay type: organism-based; settings: in vivo, 840 h, time 35 day
[20] = Toxicity in male db/db mouse assessed as change in serum amylase level at 30 nmol/kg, sc administered twice daily for 35 days; assay type: organism-based; settings: in vivo, 840 h, time 35 day
[21] = system: Mus musculus; test: Antidiabetic activity in male […] assessed as reduction in body weight at 30 nmol/kg, sc administered twice daily for 3 weeks; assay type: functional; design: scale not given: the % may be the effect or the level left
[22] = system: Mus musculus; test: Antidiabetic activity in male […] assessed as reduction in fasted glucose level at 30 nmol/kg, sc administered twice daily for 3 weeks; assay type: functional, organism-based
[23] = system: Mus musculus; test: Antidiabetic activity in male […] assessed as increase in plasma insulin level at 30 nmol/kg, sc administered twice daily for 3 weeks; assay type: functional, organism-based
[24] = system: Mus musculus; test: Antidiabetic activity in male […] assessed as decrease in serum triglycerides level at 30 nmol/kg, sc administered twice daily for 3 weeks; assay type: functional, organism-based
[25] = system: Mus musculus; test: Antidiabetic activity in male […] assessed as decrease in serum LDL-C level at 30 nmol/kg, sc administered twice daily for 3 weeks; assay type: functional, organism-based
[26] = Toxicity in male […] assessed as normalization of hepatic lipid content at 30 nmol/kg, sc administered twice daily for 3 weeks; assay type: organism-based; settings: in vivo, 504 h

Chain of Glucagon receptor (P47871 whole entry): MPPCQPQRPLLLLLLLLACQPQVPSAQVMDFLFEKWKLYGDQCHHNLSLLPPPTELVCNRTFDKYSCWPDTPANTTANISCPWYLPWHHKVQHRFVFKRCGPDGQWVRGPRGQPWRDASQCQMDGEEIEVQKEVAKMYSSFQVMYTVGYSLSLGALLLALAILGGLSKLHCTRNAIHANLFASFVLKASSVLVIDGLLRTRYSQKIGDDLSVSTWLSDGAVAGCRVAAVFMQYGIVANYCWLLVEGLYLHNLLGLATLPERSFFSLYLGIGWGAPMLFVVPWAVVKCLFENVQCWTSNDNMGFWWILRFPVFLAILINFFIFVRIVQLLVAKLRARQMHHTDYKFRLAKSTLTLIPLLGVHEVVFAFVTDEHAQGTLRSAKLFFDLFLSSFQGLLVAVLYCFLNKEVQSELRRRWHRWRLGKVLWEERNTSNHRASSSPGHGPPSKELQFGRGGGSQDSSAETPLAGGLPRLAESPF

CCCCCCCCCCCCCCCC(=O)N[C@@H](CCC(=O)NCCCC[C@H](NC(=O)[C@H](Cc1ccc(O)cc1)NC(=O)[C@H](CCCCN)NC(=O)[C@H](CO)NC(=O)[C@@H](NC(=O)[C@H](CC(=O)O)NC(=O)[C@H](CC(N)=O)NC(=O)[C@@H](NC(=O)[C@H](Cc1ccc(O)cc1)NC(=O)[C@@H](NC(=O)CNC(=O)[C@H](CCC(N)=O)NC(=O)[C@@H](CO)NC(=O)[C@@H](N)Cc1c[nH]cn1)[C@@H](C)O)[C@@H](C)O)C(C)C)C(=O)N[C@@H](CC(=O)O)C(=O)N[C@@H](CO)C(=O)N[C@@H](CCCNC(=N)N)C(=O)N[C@@H](CCCNC(=N)N)C(=O)N[C@@H](C)C(=O)N[C@@H](CCC(N)=O)C(=O)N[C@@H](CC(=O)O)C(=O)N[C@@H](Cc1ccccc1)C(=O)N[C@H](C(=O)N[C@@H](CCC(=O)O)C(=O)N[C@@H](Cc1c[nH]c2ccccc12)C(=O)N[C@@H](CC(C)C)C(=O)N[C@@H](CCCCN)C(=O)N[C@@H](CC(N)=O)C(=O)NCC(=O)NCC(=O)N1CCC[C@H]1C(=O)N[C@@H](CO)C(=O)N[C@@H](CO)C(=O)NCC(=O)N[C@@H](C)C(=O)N1CCC[C@H]1C(=O)N1CCC[C@H]1C(=O)N1CCC[C@H]1C(=O)N[C@@H](CO)C(N)=O)[C@@H](C)CC)C(=O)O
EC50 [1]: 0.098 nM
Activity [2]: Active
Activity [3]: Active
Activity [4]: Active
Activity [5]: Active
Activity [6]: Active
Activity [7]: 33%
Cmax [8]: 1510 ng/mL
MRT [9]: 7.7 h
AUC at 24 h [10]: 4610 ng·h/mL
Activity [11]: Active
Activity [12]: Non-Toxic
Activity [13]: Non-Toxic
Activity [14]: Active
Activity [15]: Active
Activity [16]: Active
Activity [17]: Active
Activity [18]: Non-Toxic
Activity [19]: Non-Toxic
Activity [20]: Non-Toxic
Activity [21]: 28.7%
Activity [22]: Active
Activity [23]: Active
Activity [24]: Active
Activity [25]: Active
Activity [26]: Non-Toxic
